# Publication PMC7311426, “An amphipathic peptide with antibiotic activity against multidrug-resistant Gram-negative bacteria” (Nature Communications, 2020)
# Read-outs that look alike come from different tables or passages of the source. Residues, ends and D or L forms follow the SMILES beside them.
# Assays:
# [1] = tested on: E. coli K12 MG1655; test: ATP release, BacTiter-Glo luminescence; assay type: cell-based, Escherichia coli; details: 60 min
# Description: ATP was measured using the BacTiter-Glo^TM Microbial Cell Viability Assay (Promega) following the manufacturer’s instructions. The assay was performed for three biological replicates at 37 °C, with luminescence recorded using a Tecan Infinite M1000 Pro plate reader. The fold reduction of ATP was calculated as: Fold reduction ATP = 1 − (Ltreat − Lmedia/Lcontrol − Lmedia); where Ltreat is the luminescence of treated cells, Lmedia is the luminescence of CAMHB without cells, and Lcontrol is the luminescence of untreated cells. Resultant graphs show mean (n = 7) and std error for each data point, prepared in Prism 8. DMSO was included as a control as piperacillin was solubilized in DMSO, with final assay concentration of 2.5%.
# [2] = tested on: E. coli (AID#172 & ATCC 25922); details: E. coli ATCC 25922; quality control range printed beside agar dilution MIC; cited from earlier work
# Excerpt: Supplement 41467_2020_16950_MOESM9_ESM.xlsx, sheet "Supp table 9" | column: Agar (Noble) Dilution MIC Results for AA139 and Comparators
# [3] = inhalation, mice; for Tmax: relative to end of inhalation
# [4] = tested on: human primary hepatocytes; test: Cell viability, human primary hepatocytes (Eurofins Panlabs); assay type: cell-based
# Description: Cell viability of human primary hepatocytes against AA139 was assessed by fluorometric readout of Alamar Blue following 24 h incubation at 37 °C of human plateable cryopreserved hepatocytes and AA139 as an 8-point dose response, 0.1–300 μM, as described by Nociari et al.[41]. Cell viability was calculated as a percentage of the control cells and plotted versus concentration using Prism 8 Software. The IC50 value was determined by non-linear regression analysis of the concentration–response curve using the Hill equation. Assay was performed by Eurofins Pharma Discovery Services (Panlabs), St Charles, MO, USA, study number 100049990. Source data are provided as a source data file.
# [5] = In vivo toxicity and safety pharmacology, i.v./i.p./s.c.
# [6] = tested on: HEK-293 human embryonic kidney cells; test: in vitro
# [7] = tested on: HepG2 liver hepatocellular carcinoma cells; test: in vitro
# [8] = in vitro; details: human
# [9] = tested on: HK-2 human kidney proximal tubule cells; test: in vitro
# [10] = 7-day iv MTD toxicity; details: minipig
compound,measurement,setting,value
colistin,Concentration at which maximum ATP release is reached,[1],at its MIC
"C[C@H]1COc2c(N3CCN(C)CC3)c(F)cc3c(=O)c(C(=O)O)cn1c23 [LEV, levofloxacin, reference compound]",MIC QC range,[2],0.008 to 0.06 µg/mL
"CC(C)[C@@H]1NC(=O)[C@H](Cc2ccc(O)cc2)NC(=O)[C@H](Cc2c[nH]c3ccccc23)NC(=O)[C@@H](NC(=O)[C@H](Cc2ccccc2)NC(=O)CN)CSSC[C@@H](C(=O)N[C@@H](CC(N)=O)C(=O)O)NC(=O)[C@H](CCCNC(=N)N)NC(=O)[C@H](CCCNC(=N)N)NC(=O)[C@H](Cc2ccc(O)cc2)NC(=O)[C@@H]2CSSC[C@H](NC1=O)C(=O)N[C@@H](C)C(=O)N[C@@H](CCCNC(=N)N)C(=O)N[C@@H](CCCNC(=N)N)C(=O)N[C@@H](CC(N)=O)C(=O)NCC(=O)N[C@@H](C)C(=O)N[C@@H](CCCNC(=N)N)C(=O)N[C@@H](C(C)C)C(=O)N2 [AA139] (HELM PEPTIDE1{G.F.C.W.Y.V.C.A.R.R.N.G.A.R.V.C.Y.R.R.C.N}$PEPTIDE1,PEPTIDE1,3:R3-20:R3|PEPTIDE1,PEPTIDE1,7:R3-16:R3$$$V2.0)",AUC(0-t),"[3]; ELF, Day 1, 5 mg kg-1/day","27,250 ng*h mL-1"
same,Cmax,"[3]; ELF, Day 1, 5 mg kg-1/day","14,750 ng mL-1"
same,Tmax,"[3]; ELF, Day 1, 5 mg kg-1/day",30 min
same,Cmax,"[3]; ELF, Day 1, 20 mg kg-1/day","8,245 ng mL-1"
same,Tmax,"[3]; ELF, Day 1, 20 mg kg-1/day",78 min
same,AUC(0-t),"[3]; ELF, Day 1, 40 mg kg-1/day","63,300 ng*h mL-1"
same,Cmax,"[3]; ELF, Day 1, 40 mg kg-1/day","36,300 ng mL-1"
same,Tmax,"[3]; ELF, Day 1, 40 mg kg-1/day",0 min
same,AUC(0-t),"[3]; ELF, Day 7, 5 mg kg-1/day","58,650 ng*h mL-1"
same,Cmax,"[3]; ELF, Day 7, 5 mg kg-1/day","21,100 ng mL-1"
same,Tmax,"[3]; ELF, Day 7, 5 mg kg-1/day",18 min
same,Cmax,"[3]; ELF, Day 7, 20 mg kg-1/day","42,350 ng mL-1"
same,Tmax,"[3]; ELF, Day 7, 20 mg kg-1/day",0 min
same,AUC(0-t),"[3]; Lung (ng/g), Day 1, 5 mg kg-1/day","8,585 ng*h mL-1"
same,AUC(0-t),"[3]; Lung (ng/g), Day 1, 20 mg kg-1/day","14,411 ng*h mL-1"
same,AUC(0-t),"[3]; Lung (ng/g), Day 1, 40 mg kg-1/day","7,002 ng*h mL-1"
same,AUC(0-t),"[3]; Lung (ng/g), Day 7, 5 mg kg-1/day","11,802 ng*h mL-1"
same,AUC(0-t),"[3]; Lung (ng/g), Day 7, 20 mg kg-1/day","66,791 ng*h mL-1"
same,Cmax,"[3]; Lung, Day 1, 5 mg kg-1/day","3,935 ng/g"
same,Tmax,"[3]; Lung, Day 1, 5 mg kg-1/day",0 min
same,Cmax,"[3]; Lung, Day 1, 20 mg kg-1/day","7,691 ng/g"
same,Tmax,"[3]; Lung, Day 1, 20 mg kg-1/day",0 min
same,Cmax,"[3]; Lung, Day 1, 40 mg kg-1/day","16,162 ng/g"
same,Tmax,"[3]; Lung, Day 1, 40 mg kg-1/day",0 min
same,Cmax,"[3]; Lung, Day 7, 5 mg kg-1/day","4,228 ng/g"
same,Tmax,"[3]; Lung, Day 7, 5 mg kg-1/day",0 min
same,Cmax,"[3]; Lung, Day 7, 20 mg kg-1/day","15,133 ng/g"
same,Tmax,"[3]; Lung, Day 7, 20 mg kg-1/day",30 min
same,Tmax,"[3]; Plasma, Day 7, 5 mg kg-1/day",18 min
same,Tmax,"[3]; Plasma, Day 7, 20 mg kg-1/day",0 min
same,"IC50, human primary hepatocytes",[4]; 24 h,330 µg/mL
same,Fold higher hepatocyte IC50 over antibacterial activity against E. coli,[4]; IC50 / MIC,2400 fold
same,Fold higher hepatocyte IC50 over antibacterial activity against K. pneumoniae,[4]; IC50 / MIC,300 fold
same,NOAEL in mice,[5]; 7-day or 14-day repeated 2 h i.v. infusion once or twice daily,20 mg kg^−1 per day
same,MTD,"[5]; mouse, in vivo, ip",20 mg/kg
same,MTD,"[5]; mouse, in vivo, iv",15 mg/kg
same,MTD at 168 h,"[5]; mouse, in vivo, iv",25 mg/kg
same,AUC(0-t),"[5]; mouse, in vivo, iv, 20 mg/kg",28000 ng·h/mL
same,Cmax,"[5]; mouse, in vivo, iv, 20 mg/kg, Cmax, Mouse, 14-day iv toxicity, GLP, TK dose 20 mg/kg, Day 1",11600 ng/mL
same,Cmax,"[5]; mouse, in vivo, iv, 20 mg/kg, Cmax, Mouse, 14-day iv toxicity, GLP, TK dose 20 mg/kg, Day 14",9600 ng/mL
same,AUC(0-inf),"[5]; mouse, in vivo, iv, 29 mg/kg",43800 ng·h/mL
same,Cmax,"[5]; mouse, in vivo, iv, 29 mg/kg",7500 ng/mL
same,NOAEL at 168 h,"[5]; mouse, in vivo, iv, NOAEL, 7-day iv MTD, IV 2-h infusion, doses 20, 25, 30",20 mg/kg
same,NOAEL at 336 h,"[5]; mouse, in vivo, iv, NOAEL, 14-day iv toxicity, GLP, IV 2-h infusion, 0, 10, 15, 20 BID",40 mg/kg/day
same,NOAEL,"[5]; mouse, in vivo, iv, NOAEL, CNS & respiratory safety pharmacology iv, IV 2-h infusion, doses 0, 15, 20, 25",20 mg/kg
same,NOAEL,"[5]; mouse, in vivo, iv, NOAEL, single-dose iv MTD, doses 0, 5, 7.5, 10, 15, 20",5 mg/kg
same,MTD,"[5]; mouse, in vivo, sc, 100 mg/kg",100 mg/kg
same,"CC50 HEK293, Mean",[6],>300 µg/mL
same,CC50 HepG2,[7],>300 µg/mL
same,"CC50 HepG2, Mean",[7],>300 µg/mL
same,CC50 at 24 h,[8]; HEK-293 cells,> 300 µg/mL
same,CC50 at 24 h,[8]; HK-2 cells,> 250 µg/mL
same,CC50 at 24 h,[8]; HepG2 cells,> 300 µg/mL
same,CC50 HK2,[9],>255 µg/mL
same,"CC50 HK2, Mean",[9],>250 µg/mL
same,MTD at 168 h,"[10]; in vivo, iv",10 mg/kg
same,AUC(0-inf),"[10]; in vivo, iv, 10 mg/kg",36700 ng·h/mL
same,Cmax,"[10]; in vivo, iv, 10 mg/kg",8700 ng/mL
same,"Target organ toxicity, kidney","[10]; 20, 25, or 30 mg kg^−1 per day by 2 h i.v. infusion for 7 days, dose-related severity",tubular nephropathy present
